Reference: PMC7048748, “Anxiolytic Drug FGIN-1-27 Ameliorates Autoimmunity by Metabolic Reprogramming of Pathogenic Th17 Cells” (Scientific Reports, 2020)

Tested on: Th17 cells
Assay: Lipidomics of Th17 cells
Assay type: cell-based, mouse
Design: key to nCE(16:0) / nCE(18:2) / nDCER(22:0) / nDCER[FA14:0] / nFFA(12:0) / nFFA(14:1) / nFFA(18:4) / nCE(22:0) / nCE(22:6) / nCE(24:1) / nCE[FA14:1] / nCE(12:0) / nCE[FA16:0] / nCE[FA17:0] / nCE[FA18:2] / nCE[FA22:6]: mole percent of each fatty acid within its lipid class; key to nDCER[FA18:1]: mole percent of fatty acid within lipid class
Description: Specific cholesterol precursors like desmosterol and oxysterols, such as 7β, 27-dihydroxycholesterol (7β, 27-OHC), have been identified as ligands for RORγt[21],[22] and shown to modulate Th17 differentiation. […] Next, we extended our studies to lipid metabolites and profiled the lipidome of Th17 cells treated with DMSO or FGIN-1-27.
(a) Quantitation of cholesterol esters, triacylglycerols (TAGs), phosphatidylethanolamine (PE) and phosphatidylcholine (PC) in Th17 cells 72 hours after treatment with FGIN-1-27. The error bars represent SD. (b) Heat map showing fatty acid composition (mole percent) for different lipid classes after treatment with FGIN-1-27. (c) Pie charts showing proportions of different fatty acid classes namely PUFAs, MUFAs, ODD and SFAs within the cholesterol esters. (d) Transcript analysis for CD5L 72 hours post treatment with FGIN-1-27. The error bars represent SD.
Th17 cells were differentiated from naïve purified CD4 T cells and treated with either FGIN-1-27 (10 µM) or DMSO during polarization. 10 million cells/treatment were harvested and snap frozen. […] The extracts were concentrated under nitrogen and reconstituted in 0.25 mL of dichloromethane:methanol (50:50) containing 10 mM ammonium acetate. The extracts were placed in vials for infusion-MS analyses, performed on a SelexION equipped Sciex 5500 QTRAP using both positive and negative mode electrospray. Each sample was subjected to 2 analyses, with IMS-MS conditions optimized for lipid classes monitored in each analysis. The 5500 QTRAP was operated in MRM mode to monitor the transitions for over 1,100 lipids from up to 14 lipid classes. Individual lipid species were quantified based on the ratio of signal intensity for target compounds to the signal intensity for an assigned internal standard of known concentration. Lipid class concentrations were calculated from the sum of all molecular species within a class, and fatty acid compositions were determined by calculating the proportion of individual fatty acids within each class.

With `CCCCCCN(CCCCCC)C(=O)Cc1c(-c2ccc(F)cc2)[nH]c2ccccc12` [FGIN-1-27, N, N-di-n-hexyl 2-(4-fluorophenyl) indole-3-acetamide] the “nDAG(15:0/18:2)” value (Th17 cells, 10 µM) was 0.0745, the “nDAG(16:0/16:0)” value (Th17 cells, 10 µM) was 19.5066 and the “nDAG(16:0/16:1)” value (Th17 cells, 10 µM) was 3.679. The “nDAG(16:0/18:0)” value (Th17 cells, 10 µM) was 17.7482, the “nDAG(16:0/18:1)” value (Th17 cells, 10 µM) was 17.8834 and the “nDAG(16:0/18:2)” value (Th17 cells, 10 µM) was 1.3367. For the same compound, the “nDAG(16:0/18:3)” value (Th17 cells, 10 µM) was 0.06918, the “nDAG(16:0/20:3)” value (Th17 cells, 10 µM) was 2.168 and the “nDAG(16:0/20:4)” value (Th17 cells, 10 µM) was 0.4462. The “nDAG(16:0/20:5)” value (Th17 cells, 10 µM) was 0.02527, the “nDAG(16:0/22:5)” value (Th17 cells, 10 µM) was 0.2343 and the “nDAG(16:0/22:6)” value (Th17 cells, 10 µM) was 0.3639. The “nDAG(16:1/16:1)” value (Th17 cells, 10 µM) was 0.2383, the “nDAG(16:1/18:0)” value (Th17 cells, 10 µM) was 0.9172 and the “nDAG(16:1/18:1)” value (Th17 cells, 10 µM) was 1.986. For the same compound, the “nDAG(16:1/18:2)” value (Th17 cells, 10 µM) was 0.2498, the “nDAG(16:1/18:3)” value (Th17 cells, 10 µM) was 0.05893 and the “nDAG(16:1/20:0)” value (Th17 cells, 10 µM) was 0.281. For the same compound, the “nDAG(16:1/20:2)” value (Th17 cells, 10 µM) was 0.05259, the “nDAG(16:1/20:4)” value (Th17 cells, 10 µM) was 0.0501 and the “nDAG(16:1/22:6)” value (Th17 cells, 10 µM) was 0.1384. The “nDAG(18:0/18:1)” value (Th17 cells, 10 µM) was 4.793, the “nDAG(18:0/18:2)” value (Th17 cells, 10 µM) was 1.2841 and the “nDAG(18:0/18:3)” value (Th17 cells, 10 µM) was 0.04099. The “nDAG(18:0/22:6)” value (Th17 cells, 10 µM) was 0.5166, the “nDAG(18:1/18:1)” value (Th17 cells, 10 µM) was 5.728 and the “nDAG(18:1/18:2)” value (Th17 cells, 10 µM) was 1.367. The “nDAG(18:1/20:1)” value (Th17 cells, 10 µM) was 0.6608, the “nDAG(18:1/20:2)” value (Th17 cells, 10 µM) was 0.298 and the “nDAG(18:1/20:3)” value (Th17 cells, 10 µM) was 0.3254. The “nDAG(18:1/20:4)” value (Th17 cells, 10 µM) was 0.3507, the “nDAG(18:1/20:5)” value (Th17 cells, 10 µM) was 0.04364 and the “nDAG(18:1/22:4)” value (Th17 cells, 10 µM) was 0.1472. The “nDAG(18:1/22:5)” value (Th17 cells, 10 µM) was 0.2687, the “nDAG(18:1/22:6)” value (Th17 cells, 10 µM) was 0.3639 and the “nDAG(18:2/18:3)” value (Th17 cells, 10 µM) was 0.01794. The “nDAG(18:2/20:3)” value (Th17 cells, 10 µM) was 0.05124, the “nDAG(18:2/20:4)” value (Th17 cells, 10 µM) was 0.02818 and the “nDAG(18:2/20:5)” value (Th17 cells, 10 µM) was 0.009187. For the same compound, the “nDAG(18:2/22:4)” value (Th17 cells, 10 µM) was 0.01566, the “nDAG(18:2/22:5)” value (Th17 cells, 10 µM) was 0.004594 and the “nDAG(18:2/22:6)” value (Th17 cells, 10 µM) was 0.04424. The “nDAG(20:0/20:0)” value (Th17 cells, 10 µM) was 0.1788, the “nDAG[FA12:0]” value (Th17 cells, 10 µM) was 0.4433 and the “nDAG[FA14:0]” value (Th17 cells, 10 µM) was 7.546. The “nDAG[FA14:1]” value (Th17 cells, 10 µM) was 0.2449, the “nDAG[FA15:0]” value (Th17 cells, 10 µM) was 0.1819 and the “nDAG[FA16:0]” value (Th17 cells, 10 µM) was 46.2571. The “nDAG[FA16:1]” value (Th17 cells, 10 µM) was 4.564, the “nDAG[FA18:0]” value (Th17 cells, 10 µM) was 12.8033 and the “nDAG[FA18:1]” value (Th17 cells, 10 µM) was 21.7078. The “nDAG[FA18:2]” value (Th17 cells, 10 µM) was 2.36, the “nDAG[FA18:3]” value (Th17 cells, 10 µM) was 0.09864 and the “nDAG[FA20:0]” value (Th17 cells, 10 µM) was 0.4502. The “nDAG[FA20:1]” value (Th17 cells, 10 µM) was 0.3304, the “nDAG[FA20:2]” value (Th17 cells, 10 µM) was 0.1753 and the “nDAG[FA20:3]” value (Th17 cells, 10 µM) was 1.272. For the same compound, the “nDAG[FA20:4]” value (Th17 cells, 10 µM) was 0.4517, the “nDAG[FA20:5]” value (Th17 cells, 10 µM) was 0.03905 and the “nDAG[FA22:4]” value (Th17 cells, 10 µM) was 0.08141. For the same compound, the “nDAG[FA22:5]” value (Th17 cells, 10 µM) was 0.2538, the “nDAG[FA22:6]” value (Th17 cells, 10 µM) was 0.7392 and the nDCER (Th17 cells, 10 µM) was 0.1046. For the same compound, the “nDCER(14:0)” value (Th17 cells, 10 µM) was 1.585, the “nDCER(16:0)” value (Th17 cells, 10 µM) was 30.1076 and the “nDCER(18:0)” value (Th17 cells, 10 µM) was 3.38. The “nDCER(18:1)” value (Th17 cells, 10 µM) was 0.4226, the “nDCER(20:0)” value (Th17 cells, 10 µM) was 4.543 and the “nDCER(20:1)” value (Th17 cells, 10 µM) was 0.06424. The “nDCER(22:0)” value (Th17 cells, 10 µM) was 7.184, the “nDCER(22:1)” value (Th17 cells, 10 µM) was 1.69 and the “nDCER(24:0)” value (Th17 cells, 10 µM) was 25.6706. The “nDCER(24:1)” value (Th17 cells, 10 µM) was 24.1916, the “nDCER(26:0)” value (Th17 cells, 10 µM) was 0.1056 and the “nDCER(26:1)” value (Th17 cells, 10 µM) was 1.0564. The “nDCER[FA14:0]” value (Th17 cells, 10 µM) was 1.585, the “nDCER[FA16:0]” value (Th17 cells, 10 µM) was 30.1076 and the “nDCER[FA18:0]” value (Th17 cells, 10 µM) was 3.38. For the same compound, the “nDCER[FA18:1]” value (Th17 cells, 10 µM) was 0.4226, the “nDCER[FA20:0]” value (Th17 cells, 10 µM) was 4.543 and the “nDCER[FA20:1]” value (Th17 cells, 10 µM) was 0.06424. For the same compound, the “nDCER[FA22:0]” value (Th17 cells, 10 µM) was 7.184, the “nDCER[FA22:1]” value (Th17 cells, 10 µM) was 1.69 and the “nDCER[FA24:0]” value (Th17 cells, 10 µM) was 25.6706. The “nDCER[FA24:1]” value (Th17 cells, 10 µM) was 24.1916, the “nDCER[FA26:0]” value (Th17 cells, 10 µM) was 0.1056 and the “nDCER[FA26:1]” value (Th17 cells, 10 µM) was 1.0564. For the same compound, the nFFA (Th17 cells, 10 µM) was 4.287, the “nFFA(12:0)” value (Th17 cells, 10 µM) was 1.325 and the “nFFA(14:0)” value (Th17 cells, 10 µM) was 3.367. The “nFFA(14:1)” value (Th17 cells, 10 µM) was 0.5145, the “nFFA(15:0)” value (Th17 cells, 10 µM) was 1.588 and the “nFFA(16:0)” value (Th17 cells, 10 µM) was 33.0903. The “nFFA(16:1)” value (Th17 cells, 10 µM) was 1.393, the “nFFA(17:0)” value (Th17 cells, 10 µM) was 2.524 and the “nFFA(18:0)” value (Th17 cells, 10 µM) was 24.6299. For the same compound, the “nFFA(18:1)” value (Th17 cells, 10 µM) was 8.8316, the “nFFA(18:2)” value (Th17 cells, 10 µM) was 4.005 and the “nFFA(18:3)” value (Th17 cells, 10 µM) was 1.526. The “nFFA(18:4)” value (Th17 cells, 10 µM) was 0.3971, the “phosphatidylethanolamine (PE) and phosphatidylcholine (PC)” value (not statistically significant) was “modestly increased” and the “lipid metabolites with differential levels” value (of 1300 lipid metabolites, p < 0.05) was 39.6%.
